Values of other authors in paper PMC8999965 (Materials, 2022).

Parameters: method as in earlier work
Settings: for EI(PCOP=0), environmental index excluding Photochemical Oxidation Potential: PCOP score excluded from summation; for EI, overall environmental index: sum of toxicity and environmental impact scores

| SMILES | EI(PCOP=0), environmental index excluding Photochemical Oxidation Potential | EI, overall environmental index |
| --- | --- | --- |
| CCN1CCOCC1 [4-ethylmorpholine] | 2.12 | 2.12 |
| O=CN1CCOCC1 [4-formylmorpholine] | 0.51 | 0.51 |
| C[S+](C)[O-] [DMSO, dimethyl sulfoxide] | 0.26 | 11.68 |
| CC(C)=O [acetone] | 0.66 | 1.27 |
| CC#N [acetonitrile] | 1.88 | 1.88 |
| C1COCCN1 [morpholine] | 2.95 | 2.95 |
